Where a name gives a salt, the structure may show the parent alone. Read-outs that look alike come from different tables or passages of the source.

The test system of assay [1] is Phosphorylated Ribosomal Protein S6 (RPS6). The experiment in a line: THP-1 RPS6 ELISA Assay. The format is cell-based, Human. The settings on record: THP-1 cells, read-out: PI3Kγ_THP1_RPS6_ELISA IC50. Summed up: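 IC50 values come from a curve of percent inhibition against log compound concentration, using phospho-RPS6 ELISA (450 nm) on THP-1 lysates. Cells were serum-starved overnight, exposed to compound for 2 h at 37 °C, then challenged 15 min with 10 nM MCP-1.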

The target in assay [2] is PI3Kγ (p110γ) Recombinant Human Protein (Homo sapiens (Human), UniProt P48736). The experiment in a line: PI3K-γ Scintillation Proximity Assay. It is filed as biochemical. The settings on record: read-out: PI3Kγ IC50. Summed up:
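Radiometric SPA readout: […] bound to WGA beads after overnight shaking, IC50 derived from % activity of DMSO control. Reaction used human p110γ, 2 μM ATP, 20 μM PIP2, pH 6.7 MOPS buffer with MgCl2, DTT, CHAPS, 2% DMSO, room temperature.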

The target of assay [3] is PI3Kδ (p110δ/p85α) Recombinant Human Protein (Homo sapiens (Human), UniProt O00329). As to the kind of experiment: PI3Kδ Scintillation Proximity Assay. The format is biochemical. Summed up:
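IC50 was fitted to percent solvent-control activity from SPA scintillation counts after WGA bead capture of 33P-labelled lipid product. Reaction: 120 min, room temperature, 3.4 nM p110δ/p85α, 20 μM PIP2, 2 μM ATP with tracer, MOPS pH 6.7 buffer containing MgCl2, DTT, CHAPS, 2% DMSO.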

PI3Kγ (p110γ) Recombinant Human Protein, sequence (P48736 whole entry): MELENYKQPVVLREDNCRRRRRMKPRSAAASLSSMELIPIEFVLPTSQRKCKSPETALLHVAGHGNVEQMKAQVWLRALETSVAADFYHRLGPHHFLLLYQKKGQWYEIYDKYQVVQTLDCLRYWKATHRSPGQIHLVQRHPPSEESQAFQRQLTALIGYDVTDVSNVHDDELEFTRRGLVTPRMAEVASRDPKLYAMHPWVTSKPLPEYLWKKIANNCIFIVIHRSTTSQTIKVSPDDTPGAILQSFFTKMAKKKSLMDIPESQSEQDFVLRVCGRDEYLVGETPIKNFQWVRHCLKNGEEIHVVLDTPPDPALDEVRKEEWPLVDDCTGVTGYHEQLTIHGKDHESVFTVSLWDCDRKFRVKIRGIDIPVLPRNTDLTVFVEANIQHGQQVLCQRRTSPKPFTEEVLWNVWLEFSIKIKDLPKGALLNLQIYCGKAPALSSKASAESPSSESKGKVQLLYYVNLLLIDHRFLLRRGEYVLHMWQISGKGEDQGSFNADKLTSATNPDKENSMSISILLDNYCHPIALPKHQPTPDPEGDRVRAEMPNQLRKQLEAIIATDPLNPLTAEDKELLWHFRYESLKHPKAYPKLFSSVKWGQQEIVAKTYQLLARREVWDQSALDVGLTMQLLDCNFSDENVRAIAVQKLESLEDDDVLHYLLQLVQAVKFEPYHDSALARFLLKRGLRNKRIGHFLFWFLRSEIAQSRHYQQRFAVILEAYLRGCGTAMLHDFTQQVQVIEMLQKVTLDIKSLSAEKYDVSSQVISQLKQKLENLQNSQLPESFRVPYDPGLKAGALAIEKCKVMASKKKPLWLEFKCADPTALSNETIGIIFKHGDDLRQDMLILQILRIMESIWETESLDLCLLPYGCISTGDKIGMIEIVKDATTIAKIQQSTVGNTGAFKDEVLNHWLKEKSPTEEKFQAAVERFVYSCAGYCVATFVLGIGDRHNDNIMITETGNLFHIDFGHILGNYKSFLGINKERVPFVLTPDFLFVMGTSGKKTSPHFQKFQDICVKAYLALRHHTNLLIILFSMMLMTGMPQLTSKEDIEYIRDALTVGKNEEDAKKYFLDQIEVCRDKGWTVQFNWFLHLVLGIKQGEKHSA
PI3Kδ (p110δ/p85α) Recombinant Human Protein, sequence (O00329 whole entry): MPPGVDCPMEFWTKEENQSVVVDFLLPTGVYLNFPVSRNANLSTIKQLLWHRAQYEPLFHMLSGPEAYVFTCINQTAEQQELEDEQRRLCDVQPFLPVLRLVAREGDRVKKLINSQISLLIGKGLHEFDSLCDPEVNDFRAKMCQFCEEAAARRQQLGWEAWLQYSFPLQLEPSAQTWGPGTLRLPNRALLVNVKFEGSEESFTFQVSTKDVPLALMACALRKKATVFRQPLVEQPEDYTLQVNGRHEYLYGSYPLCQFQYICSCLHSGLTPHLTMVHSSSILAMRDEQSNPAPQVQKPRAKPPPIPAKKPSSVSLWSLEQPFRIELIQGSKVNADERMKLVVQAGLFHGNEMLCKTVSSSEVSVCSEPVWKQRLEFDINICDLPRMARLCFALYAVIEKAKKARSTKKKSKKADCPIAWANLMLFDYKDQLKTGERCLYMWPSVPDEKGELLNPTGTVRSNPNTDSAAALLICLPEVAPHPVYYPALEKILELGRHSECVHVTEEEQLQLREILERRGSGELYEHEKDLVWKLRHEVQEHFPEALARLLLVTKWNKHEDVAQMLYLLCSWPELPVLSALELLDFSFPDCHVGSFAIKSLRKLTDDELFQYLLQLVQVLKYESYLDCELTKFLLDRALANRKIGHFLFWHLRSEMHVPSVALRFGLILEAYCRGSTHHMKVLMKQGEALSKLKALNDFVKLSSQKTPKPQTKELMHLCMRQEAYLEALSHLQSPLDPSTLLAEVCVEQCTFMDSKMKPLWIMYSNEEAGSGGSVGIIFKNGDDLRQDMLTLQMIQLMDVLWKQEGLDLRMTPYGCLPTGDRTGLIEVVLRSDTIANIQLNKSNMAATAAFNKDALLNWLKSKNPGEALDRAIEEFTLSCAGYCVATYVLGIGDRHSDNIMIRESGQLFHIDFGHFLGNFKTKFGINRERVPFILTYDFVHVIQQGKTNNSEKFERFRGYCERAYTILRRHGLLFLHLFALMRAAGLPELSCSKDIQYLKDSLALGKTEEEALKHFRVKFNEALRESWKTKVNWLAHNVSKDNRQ
PI3Kδ (p110δ/p85α) Recombinant Human Protein, sequence (P27986 whole entry partner): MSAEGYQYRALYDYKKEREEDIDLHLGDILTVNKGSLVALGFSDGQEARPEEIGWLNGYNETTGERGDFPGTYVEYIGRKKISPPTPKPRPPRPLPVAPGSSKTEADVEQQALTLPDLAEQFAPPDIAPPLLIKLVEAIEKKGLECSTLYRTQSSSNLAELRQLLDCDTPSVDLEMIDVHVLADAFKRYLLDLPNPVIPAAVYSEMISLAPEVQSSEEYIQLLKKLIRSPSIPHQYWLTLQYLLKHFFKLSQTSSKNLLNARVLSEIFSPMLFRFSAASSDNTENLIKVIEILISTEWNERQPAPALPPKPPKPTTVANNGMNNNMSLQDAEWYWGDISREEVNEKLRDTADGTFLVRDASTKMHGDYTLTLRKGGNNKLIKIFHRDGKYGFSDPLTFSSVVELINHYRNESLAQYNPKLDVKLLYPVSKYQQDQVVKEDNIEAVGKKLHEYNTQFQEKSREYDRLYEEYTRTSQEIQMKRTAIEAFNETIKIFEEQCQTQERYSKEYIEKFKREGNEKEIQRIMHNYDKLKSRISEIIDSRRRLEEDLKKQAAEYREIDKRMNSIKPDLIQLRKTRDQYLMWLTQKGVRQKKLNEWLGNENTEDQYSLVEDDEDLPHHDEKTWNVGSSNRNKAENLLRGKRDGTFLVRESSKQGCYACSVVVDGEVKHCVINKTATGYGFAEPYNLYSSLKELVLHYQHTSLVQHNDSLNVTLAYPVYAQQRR

Take `Cc1ccc(S(=O)(=O)NC23CCC(CO)(C2)C3)cc1-c1cnc2c(N)nc(C(F)(F)F)nn12` [Example 328, 3-(4-Amino-2-(trifluoromethyl)imidazo[1,2-f][1,2,4]triazin-7-yl)-N-(4-(hydroxymethyl)bicyclo[2.1.1]hexan-1-yl)-4-methylbenzenesulfonamide trifluoroacetate salt]: the IC50 in assay [1] was less than 100 nM; in assay [2] it was less than 100 nM; in assay [3] it was 100 to 500 nM.
As for `Cc1ccc(S(=O)(=O)NC2CN(CCO)C2)cc1-c1cnc2c(N)nc(C(F)(F)F)nn12` [Example 329, 3-(4-Amino-2-(trifluoromethyl)imidazo[1,2-f][1,2,4]triazin-7-yl)-N-(1-(2-hydroxyethyl)azetidin-3-yl)-4-methylbenzenesulfonamide trifluoroacetate salt], the IC50 in assay [1] is 100 to 500 nM; in assay [2], less than 100 nM; in assay [3], 100 to 500 nM.
Consider `Cc1ccc(S(=O)(=O)NC23CC(C#N)(C2)C3)cc1-c1cnc2c(N)nc(C(F)(F)F)nn12` [Example 330, 3-(4-Amino-2-(trifluoromethyl)imidazo[1,2-f][1,2,4]triazin-7-yl)-N-(3-cyanobicyclo[1.1.1]pentan-1-yl)-4-methylbenzenesulfonamide trifluoroacetate salt], for which the IC50 in assay [1], in assay [2] and in assay [3] was less than 100 nM in each case.
For the compound `Cc1ccc(S(=O)(=O)NC23CC(CF)(C2)C3)cc1-c1cnc2c(N)nc(C(F)(F)F)nn12` [Example 331, 3-(4-Amino-2-(trifluoromethyl)imidazo[1,2-f][1,2,4]triazin-7-yl)-N-(3-(fluoromethyl)bicyclo[1.1.1]pentan-1-yl)-4-methylbenzenesulfonamide trifluoroacetate salt], the IC50 was 100 to 500 nM in assay [1], less than 100 nM in assay [2] and 100 to 500 nM in assay [3].
For `Cc1ccc(S(=O)(=O)NC23CC(Cn4cccn4)(C2)C3)cc1-c1cnc2c(N)nc(C(F)(F)F)nn12` [Example 332, N-(3-((1H-pyrazol-1-yl)methyl)bicyclo[1.1.1]pentan-1-yl)-3-(4-amino-2-(trifluoromethyl)imidazo[1,2-f][1,2,4]triazin-7-yl)-4-methylbenzenesulfonamide trifluoroacetate salt], the IC50 is less than 100 nM in assay [1], less than 100 nM in assay [2] and 100 to 500 nM in assay [3].
As for `Cc1ccc(S(=O)(=O)NC23CC(F)(C2)C3)cc1-c1cnc2c(N)nc(C(F)(F)F)nn12` [Example 333, 3-(4-Amino-2-(trifluoromethyl)imidazo[1,2-f][1,2,4]triazin-7-yl)-N-(3-fluorobicyclo[1.1.1]pentan-1-yl)-4-methylbenzenesulfonamide trifluoroacetate salt], the IC50 is less than 100 nM in assay [1], less than 100 nM in assay [2] and 100 to 500 nM in assay [3].
Take `Cc1ccc(S(=O)(=O)NCC2(CO)CCOCC2)cc1-c1cnc2c(N)nc(C(F)(F)F)nn12` [Example 334, 3-(4-Amino-2-(trifluoromethyl)imidazo[1,2-f][1,2,4]triazin-7-yl)-N-((4-(hydroxymethyptetrahydro-2H-pyran-4-yl)methyl)-4-methylbenzenesulfonamide trifluoroacetate salt]: the figures for the IC50 in assay [1], in assay [2] and in assay [3] were less than 100 nM, less than 100 nM and 100 to 500 nM, respectively.
Regarding `Cc1ccc(S(=O)(=O)NCC2(O)CNC2)cc1-c1cnc2c(N)nc(C(F)(F)F)nn12` [Example 335, 3-(4-Amino-2-(trifluoromethyl)imidazo[1,2-f][1,2,4]triazin-7-yl)-N-((3-hydroxyazetidin-3-yl)methyl)-4-methylbenzenesulfonamide trifluoroacetate salt], the IC50 in assay [1] was 100 to 500 nM; in assay [2], less than 100 nM; in assay [3], 100 to 500 nM.
For `Cc1ccc(S(N)(=O)=O)cc1-c1cnc2c(N)nc(C(F)(F)F)nn12` [Example 336, 3-(4-Amino-2-(trifluoromethyl)imidazo[1,2-f][1,2,4]triazin-7-yl)-4-methylbenzenesulfonamide trifluoroacetate salt], the IC50 in assay [1] is 100 to 500 nM; in assay [2] it was less than 100 nM; in assay [3], 100 to 500 nM.
Take `Cc1ccc(S(=O)(=O)NC2CN(C3COC3)C2)cc1-c1cnc2c(N)nc(C(F)(F)F)nn12` [Example 337, 3-(4-Amino-2-(trifluoromethyl)imidazo[1,2-f][1,2,4]triazin-7-yl)-4-methyl-N-(1-(oxetan-3-yl)azetidin-3-yl)benzenesulfonamide trifluoroacetate salt]: the 50% inhibitory concentration (IC50) was 100 to 500 nM in assay [1], less than 100 nM in assay [2] and 100 to 500 nM in assay [3].
`Cc1ccc(S(=O)(=O)NC23CC(Cn4cncn4)(C2)C3)cc1-c1cnc2c(N)nc(C(F)(F)F)nn12` [Example 338, N-(3-((1H-1,2,4-triazol-1-yl)methyl)bicyclo[1.1.1]pentan-1-yl)-3-(4-amino-2-(trifluoromethyl)imidazo[1,2-f][1,2,4]triazin-7-yl)-4-methylbenzenesulfonamide]: the IC50 in assay [1] is 100 to 500 nM; in assay [2], less than 100 nM; in assay [3], 100 to 500 nM.
On to `Cc1ccc(S(=O)(=O)NC23CC(C(F)F)(C2)C3)cc1-c1cnc2c(N)nc(C(F)(F)F)nn12` [Example 339, 3-(4-Amino-2-(trifluoromethyl)imidazo[1,2-f][1,2,4]triazin-7-yl)-N-(3-(difluoromethyl)bicyclo[1.1.1]pentan-1-yl)-4-methylbenzenesulfonamide trifluoroacetate salt], for which the IC50 in assay [1] was 100 to 500 nM; in assay [2] it was less than 100 nM; in assay [3] it was 100 to 500 nM.
Consider `Cc1ccc(S(=O)(=O)NC23CC(N4CCOCC4)(C2)C3)cc1-c1cnc2c(N)nc(C(F)(F)F)nn12` [Example 340, 3-(4-Amino-2-(trifluoromethyl)imidazo[1,2-f][1,2,4]triazin-7-yl)-4-methyl-N-(3-morpholinobicyclo[1.1.1]pentan-1-yl)benzenesulfonamide trifluoroacetate salt], for which the IC50 was 100 to 500 nM in assay [1], less than 100 nM in assay [2] and 100 to 500 nM in assay [3].
On to `Cc1ccc(S(=O)(=O)NC23CC(N)(C2)C3)cc1-c1cnc2c(N)nc(C(F)(F)F)nn12` [Example 341, 3-(4-Amino-2-(trifluoromethyl)imidazo[1,2-f][1,2,4]triazin-7-yl)-N-(3-aminobicyclo[1.1.1]pentan-1-yl)-4-methylbenzenesulfonamide trifluoroacetate salt], for which the IC50 in assay [1] is 100 to 500 nM; in assay [2], less than 100 nM; in assay [3], 100 to 500 nM.
For the compound `Cc1ccc(S(=O)(=O)N2CC(O)(C3CC3)C2)cc1-c1cnc2c(N)nc(C(F)(F)F)nn12` [Example 342, 1-((3-(4-amino-2-(trifluoromethyl)imidazo[2,1-1,2,4]triazin-7-yl)-4-methylphenyl)sulfonyl)-3-cyclopropylazetidin-3-ol TFA], the half-inhibitory concentration (IC50) is 100 to 500 nM in assay [1], less than 100 nM in assay [2] and 100 to 500 nM in assay [3].
With `Cc1ccc(S(=O)(=O)N2CC3(CC(O)C3)C2)cc1-c1cnc2c(N)nc(C(F)(F)F)nn12` [Example 343, 2-((3-(4-amino-2-(trifluoromethyl)imidazo[2,1-f][1,2,4]triazin-7-yl)-4-methylphenyl)sulfonyl)-2-azaspiro[3.3]heptan-6-ol TFA], the IC50 in assay [1] (Homo sapiens), in assay [2] and in assay [3] was less than 100 nM in each case.
Take `Cc1ccc(S(=O)(=O)N(C)CCC#N)cc1-c1cnc2c(N)nc(C(F)(F)F)nn12` [Example 344, 3-(4-amino-2-(trifluoromethyl)imidazo[2,1-f][1,2,4]triazin-7-yl)-N-(2-cyanoethyl)-N,4-dimethylbenzenesulfonamide]: the IC50 in assay [1] (Homo sapiens) is 100 to 500 nM; in assay [2], less than 100 nM; in assay [3], less than 100 nM.
Regarding `Cc1ccc(S(=O)(=O)N(CCC#N)C2CC2)cc1-c1cnc2c(N)nc(C(F)(F)F)nn12` [Example 345, 3-(4-amino-2-(trifluoromethyl)imidazo[2,1-f][1,2,4]triazin-7-yl)-N-(2-cyanoethyl)-N-cyclopropyl-4-methylbenzenesulfonamide], the IC50 was greater than 1000 nM in assay [1] (Homo sapiens), less than 100 nM in assay [2] and 100 to 500 nM in assay [3].
Take `Cc1ccc(S(=O)(=O)N(CCC#N)C2CCCC2)cc1-c1cnc2c(N)nc(C(F)(F)F)nn12` [Example 346, 3-(4-amino-2-(trifluoromethyl)imidazo[2,1-f][1,2,4]triazin-7-yl)-N-(2-cyanoethyl)-N-cyclopentyl-4-methylbenzenesulfonamide]: the 50% inhibitory concentration (IC50) in assay [1] (Homo sapiens) is 100 to 500 nM; in assay [2], less than 100 nM; in assay [3] it was 100 to 500 nM.
On to `Cc1ccc(S(=O)(=O)N2CCC[C@H]2CO)cc1-c1cnc2c(N)nc(C(F)(F)F)nn12` [Example 347, (S)-(1-((3-(4-amino-2-(trifluoromethyl)imidazo[2,1-f][1,2,4]triazin-7-yl)-4-methylphenyl)sulfonyl)pyrrolidin-2-yl)methanol], for which the figures for the IC50 in assay [1] (Homo sapiens), in assay [2] and in assay [3] were less than 100 nM, less than 100 nM and 100 to 500 nM, respectively.

The values are drawn from patent publication US10479795B2 (Incyte Corporation, priority 2016, dated 2019).
